# From patent US20240150286A1, “PEROXISOME PROLIFERATOR-ACTIVATED RECEPTOR GAMMA (PPARy) LIGANDS AND METHODS OF USE AS TREATMENTS FOR INSULIN RESISTANCE, OBESITY, FATTY LIVER DISEASE, AND TYPE 2 DIABETES” (The Board of Regents of the University of Oklahoma, priority 2022, published 2024)
# Legend:
# [1] = system: diet-induced obesity (DIO) mice; experiment: Body weight, body composition and indirect calorimetry in DIO mice; assay type: in vivo, mouse
# Protocol: (§1) C57BL/6J male mice were obtained from Jackson laboratory (Bar Harbor, ME) and maintained on a 12 h light (6:00 AM to 6:00 PM)—12 h dark (6:00 PM to 6:00 AM) cycle at an ambient temperature of 22±1° C. All animals had access to diet and water ad libitum. All procedures involving animals were approved by the Institutional Animal Care and Use Committee of the University of Oklahoma Health Science Center. All experiments were performed with age-matched male mice. The mice were fed a high-fat diet (HFD) (60% kcal fat, Bio-Serv, NJ, USA) starting from the age of 6 weeks until study end. […] Food intake was determined manually by measuring the amount of input food subtracting the amount of the food remaining in the food hopper and the crumbs on the bedding of the cage each day for three days during the 4th week of the treatment. Packed cell volume (PCV) was measured with blood drawn from tail on a LW Scientific E8 centrifuge (LW Scientific, Lawrenceville, Georgia, USA) microhematocrit centrifuge at the end of study. For all other measurements, the blood was drawn at the time of euthanization.
# Body lean and fat composition was determined by EchoMRI test.
# The mice were individually housed in chambers of a Promethion Core Monitoring system (Sable Systems, Las Vegas, NV, USA). After a 1-day acclimation period, their oxygen consumption and carbon dioxide production were measured for the next three consecutive days. The respiratory exchange ratio and energy expenditure were calculated using standard equations
# [2] = system: diet-induced obesity (DIO) mice; experiment: TZD-associated side effects in DIO mice (PCV, heart weight, cardiac and bone genes); assay type: in vivo, mouse
# Protocol: as §1
# (§2) Total RNA (2 μg) was isolated from tissues or cells using TRIzol reagents (Life Technologies) and reverse transcribed using oligo d(T) primers (New England Biosystems) and SuperScript IV reverse transcription kit (Applied Biosystems). qPCR was performed in a CFX96 Touch Real-Time PCR detection system using SYBR Green mix (Applied Biosystems). The amplification program was as follows: initial denaturation at 95° C. for 15 min, followed by 40 cycles of 95° C. for 15 s, 60° C. for 1 min, and 40° C. for 30 s. Relative mRNA expression was determined by the ΔΔCt method normalized to TBP mRNA.
# [3] = system: PPARγ S273 phosphorylation; experiment: PPARγ S273 phosphorylation and phosphorylation-dependent genes in 3T3-L1 differentiated adipocytes; assay type: cell-based, mouse
# Protocol: as §2
# [4] = system: adipose tissues (iWAT, eWAT, BAT) of DIO mice; experiment: Adipose tissue analyses in DIO mice (pS273 Western, qRT-PCR, UCP1, histology, CLS); assay type: in vivo, mouse
# Protocol: as §1
# Liver, heart, bone, adipose tissues were dissected and immediately fixed in 4% paraformaldehyde (Sigma-Aldrich), paraffin embedded, and stained with hematoxylin and eosin. For Immunofluorescence staining, the eWAT and iWAT paraffin sections were incubated with primary antibody (rabbit polyclonal to F4/80 [1:500, Cat #: 70076], Cell Signaling Technology) overnight at 4° C. after deparaffinization. The slides were washed thrice with PBS with 0.2% Triton and then incubated in secondary antibody, Alexa 488 anti-rabbit (1:500, Jackson ImmunoResearch, PA) for 1.5 h at room temperature. Tissue sections were imaged on the Olympus Fluoview 1000 laser-scanning confocal microscope (Center Valley, PA).
# as §2, with “mRNA. The sequences of primers used in this study were shown in Table 1 in U.S. Provisional Application Ser. No. 63/419,049, the entirety of which is incorporated herein by reference.” for “mRNA.”
# Proteins were extracted with RIPA buffer containing protease and phosphatase inhibitors (Thermo) and then centrifuged for 10 min at 10,000 g. A 30 μg sample of protein was separated on a 10% SDS polyacrylamide gel and transferred to polyvinylidene-fluoride membrane for 1 h at 4° C. at 40 V. The membrane was blocked in TBS (10 mm Tris-HCl, pH 7.4, 150 mm NaCl) containing 5% non-fat dry milk for 1 h at room temperature and was probed with primary antibodies followed by the appropriate HRP-conjugated secondary antibodies (Anti-rabbit IgG, #7074, or Anti-mouse IgG, #7076, 1:5000 Cell Signaling Technology). The primary antibodies used were: anti-Ser-273 PPARγ (bs-4888R, Bioss Antibodies), anti-PPARγ antibody (sc-271392, Santa Cruz Biotechnology), anti-UCP1 (14670S, Cell Signaling Technology, Beverly, MA, USA).
# [5] = system: diet-induced obesity (DIO) mice; experiment: Glucose tolerance, insulin tolerance and serum biochemistry in DIO mice; assay type: in vivo, mouse
# Protocol: as §1
# Intraperitoneal glucose tolerance test (ipGTT) was performed after 6-h fasting. Blood glucose levels were measured at 0, 15, 30, 60, and 120 min glucometer (OneTouch Ultra 2 Meter) after an intraperitoneal administration of glucose at dose of 1.5 g/kg body weight. Intraperitoneal insulin tolerance test (ipITT) was performed after 6 h fasting. Blood glucose levels were measured at 0, 15, 30, 60, and 120 min after an intraperitoneal administration of human insulin at dose of 1.2 IU/kg body weight.
# Serum insulin (ALPCO, NH, USA), serum cholesterol TG (Cayman Chem., MI, USA) and FFAs (Bioassay system, CA, USA) were determined by ELISA.
# [6] = SVF of inguinal and epididymal adipose tissues, DIO mice
# [7] = eWAT of DIO mice, 15 mg/kg i.p. daily 4 weeks
structure (smiles),measurement,setting,value
"Cc1c(C)n(Cc2ccc(-c3ccccc3C(=O)O)cc2)c2ccc(C(=O)NCc3cccc(O)c3)cc12 [WO95E, 4′-((5-((3-hydroxybenzyl)carbamoyl)-2,3-dimethyl-1H-indol-1-yl)methyl)-[1,1′-biphenyl]-2-carboxylic acid]",body weight,"[1]; DIO mice on HFD, 15 mg/kg i.p. daily 4 weeks",reduced body weight
same,fat mass (EchoMRI),"[1]; DIO mice, 15 mg/kg i.p. daily",significant decrease
same,lean mass (EchoMRI),"[1]; DIO mice, 15 mg/kg i.p. daily",no noticeable change
same,daily food intake,"[1]; DIO mice, 4th week of treatment, vs vehicle",same amount of daily food intake
same,average oxygen consumption (VO2),"[1]; DIO mice, indirect calorimetry after 4-week treatment",higher
same,mean energy expenditure,"[1]; DIO mice, indirect calorimetry, vs vehicle",significantly heightened
same,average carbon dioxide production (VCO2),"[1]; DIO mice, indirect calorimetry, p value 0.08 for daytime",increased
same,respiratory exchange ratio (RER),"[1]; DIO mice, vs vehicle, data not shown",similar
same,overall activity (distance),"[1]; DIO mice, difference statistically insignificant",upward trend
same,"mRNA levels of bone formation genes (Bglap, SPP1, ColA1)",[2]; 4-week treatment,no apparent effect
same,packed-cell volume (PCV),[2]; indicator of hemodilution,unchanged
same,heart weight,[2]; relative to vehicle,no effect
same,mRNA levels of Myh7 and Nppb in heart,[2]; vs vehicle,not significantly altered or even lowered
same,"mRNA levels of PPARγ phosphorylation-dependent genes (adiponectin, cycp2f2, Ddx-17, Rarres2, Selenbp1)","[3]; 3T3-L1, 10 μM, qRT-PCR",upregulation
same,S273 phosphorylation of PPARγ,"[3]; 3T3-L1 differentiated adipocytes, TNFα 10 ng/ml 1 h, compounds at 10 μM, Western blot",significantly inhibited
same,PPARγ S273 phosphorylation in iWAT,"[4]; DIO mice, 15 mg/kg i.p. daily 4 weeks, Western blot",markedly inhibited
same,"mRNA levels of browning/thermogenic genes (Prdm16, Cidea, Ppara, CPT1a, UCP1, Cox5b, PGC1α) in iWAT","[4]; DIO mice, 15 mg/kg i.p. daily 4 weeks, vs vehicle",significantly increased
same,adipocyte size in eWAT and iWAT,"[4]; DIO mice, H&E sections, vs vehicle",significantly smaller
same,UCP1 protein in iWAT and eWAT,"[4]; DIO mice, Western blotting",dramatic induction
same,UCP1 protein in BAT,"[4]; DIO mice, data not shown",an increase
same,mRNA levels of thermogenic genes in BAT,"[4]; DIO mice, data not shown",increased mRNA expression levels of most of these genes
same,areas of crown-like structures (CLS) in iWAT and eWAT,"[4]; DIO mice, vs vehicle",dramatically reduced
same,"mRNA levels of M2 macrophage markers (IL4, IL10, Mg1I)",[4]; [6],up-regulated or unchanged
same,"mRNA levels of pan-macrophage markers (CD68, F4/80)",[4]; [6],significantly decreased
same,genes involved in lipogenesis or adipogenesis,[4]; [7],inhibited
same,"mRNA levels of S273 phosphorylation-repressed genes (Adiponectin, Adipsin, selenbp1, Car3, Ddx-17, Acyl, Rarres2, Cidec)",[4]; [7],up-regulated
same,"mRNA levels of proinflammatory M1 mediators (TNFα, IL1b, IL-6, mcp-1)","[4]; iWAT and eWAT, DIO mice",down-regulated
same,serum level of free fatty acid,[5]; 15 mg/kg i.p. daily 4 weeks,decreased
same,total serum cholesterol,[5]; 15 mg/kg i.p. daily 4 weeks,downward trend but did not reach statistically significant
same,triglyceride level,"[5]; 15 mg/kg i.p. daily 4 weeks, data not shown",unchanged
same,"glucose tolerance (ipGTT, peak glucose and AUC)","[5]; 15 mg/kg i.p. daily, 2 weeks, vs vehicle",significantly improved
same,insulin sensitivity (ipITT),"[5]; 15 mg/kg i.p. daily, 2.5 weeks, vs vehicle",enhanced
same,fasting and refeeding plasma levels of insulin,"[5]; 15 mg/kg i.p. daily, vs vehicle",markedly decreased
